Laboratory results as given in patent publication US20100178249A1, “IMAGING MEDIUM COMPRISING LACTATE AND HYPERPOLARISED 13C-PYRUVATE” (priority 2006, published 2010).

Legend:
Assay type in all cases: cell-based
[1] = system: EL-4 murine lymphoma cells; test: 31P-NMR measurements on acid-extracts of EL-4 cells induced to undergo cell death
Description: Loss of NAD(H) can be explained by DNA-damage induced activation of the enzyme poly-ADP-ribose polymerase (PARP), which polyadenylates various proteins and uses NAD^+ as a substrate. There was also an increase in the resonances from the glycolytic intermediate, fructose-1,6-bisphosphate (FBP), which can be explained by inhibition of the glycolytic enzyme, glyceraldehyde 3-phosphate dehydrogenase (GAPDH), through loss of its coenzyme NAD(H). Inhibition of PARP activity with a competitive inhibitor (20 mM nicotinamide) or 3-aminobenzamide (10 mM) inhibited the loss of NAD(H) and the increase in FBP concentration observed in apoptotic cells.

[2] = system: EL4 murine lymphoma cells; test: 13C-MR spectroscopy of hyperpolarised 13C-label flux between pyruvate and lactate in EL4 cells; conditions: cells treated with both the PARP inhibitor and etoposide
Method: (§1) EL4 murine lymphoma cells (10^8 cells) were treated with 15 μM etoposide (PCH Pharmachemie BV, Harleem), a compound which is known to induce cell death after 16 h exposure. A separate set of cells was treated for 16 hours with 15 μM etoposide plus 20 mM nicotinamide, a known PARP inhibitor. Cell death (apoptosis and necrosis) was confirmed by acridine orange and propidium iodide staining. The cells were washed 3 times with RPMI 1640 growth medium containing 10% FCS at 37° C. and to 2 ml of the etoposide- and etoposide/nicotinamide treated EL4 cell suspension 2 ml of the imaging medium according to Example 2 were added. The final cell suspension thus contained 30 mM hyperpolarised ^13C1-pyruvate and 37.5 mM lactate.
^13C-signal intensities from ^13C-pyruvate and ^13C-lactate in etoposide-treated EL4 cell suspensions as described in 3.1 were followed over a time period of 240 seconds from the time of addition of the imaging medium. […]
^13C-signal intensities from ^13C-pyruvate and ^13C-lactate in etoposide-treated and etoposide/nicotinamide treated EL4 cell suspensions as described in 3.1 were followed over a time period of 240 seconds from the time of addition of the imaging medium. […] The data were fit to a two-site exchange model based on the modified Bloch equations, and the rate constants for the forward and reverse exchange ^13C-fluxes were determined. […]

[3] = system: EL4 murine lymphoma cells; test: Cell death by acridine orange and propidium iodide staining / fluorescence microscopy; conditions: for morphological features of dying cells: cells treated with both the PARP inhibitor and etoposide, fluorescence microscopy
Method: as §1

[4] = etoposide-treated cells compared to untreated control cells

Structure (SMILES)	increase in FBP concentration observed in apoptotic cells ([1]; 3-aminobenzamide 10 mM)	loss of NAD(H) observed in apoptotic cells ([1]; 3-aminobenzamide 10 mM)	ability to transfer the hyperpolarised 13C-label between the pyruvate and lactate pools [2]	morphological features of dying cells [3]	intensity of the resonances from NAD(H) [1, 4]	resonances from fructose-1,6-bisphosphate (FBP) [1, 4]	cell death (apoptosis and necrosis) ([3]; 15 μM etoposide, 16 h exposure)	increase in FBP concentration observed in apoptotic cells ([1]; 20 mM nicotinamide)	loss of NAD(H) observed in apoptotic cells ([1]; 20 mM nicotinamide)
NC(=O)c1cccc(N)c1 [3-aminobenzamide]	inhibited	inhibited	maintained	still exhibiting the common morphological features of dying cells	–	–	–	–	–
COc1cc([C@@H]2c3cc4c(cc3[C@@H](O[C@@H]3O[C@@H]5CO[C@@H](C)O[C@H]5[C@H](O)[C@H]3O)[C@H]3COC(=O)[C@H]23)OCO4)cc(OC)c1O [etoposide]	–	–	–	–	decrease	increase	confirmed	–	–
NC(=O)c1cccnc1 [nicotinamide]	–	–	maintained	still exhibiting the common morphological features of dying cells	–	–	–	inhibited	inhibited
